Measured values reported in a compilation of properties of binary mixtures (doi:10.1016/j.molliq.2020.114573).

Test: xn = mol fraction of the nth substance listed
Settings: 101.3 kPa

CC1COC(=O)O1 (stereo unspecified) + CC[n+]1ccn(C)c1C.O=S(=O)([N-]S(=O)(=O)C(F)(F)F)C(F)(F)F
x2 = 0
Settings | viscosity [mPa·s]
293.15 K | 2.746
298.15 K | 2.476
303.15 K | 2.246
313.15 K | 1.879
318.15 K | 1.73
323.15 K | 1.6
328.15 K | 1.486
333.15 K | 1.385
338.15 K | 1.294
343.15 K | 1.213

CC[n+]1ccn(C)c1C.O=S(=O)([N-]S(=O)(=O)C(F)(F)F)C(F)(F)F + CC1COC(=O)O1
viscosity [mPa·s]
Settings | x1 = 0.1025 | x1 = 0.203 | x1 = 0.3078 | x1 = 0.3994 | x1 = 0.5149 | x1 = 0.5825 | x1 = 0.7004 | x1 = 0.8032 | x1 = 0.8903 | x1 = 1
293.15 K | 4.428 | 6.93 | 10.56 | 14.82 | 23.06 | 28.58 | 40.63 | 54.1 | 67.4 | 88.1
298.15 K | 3.939 | 6.07 | 9.11 | 12.62 | 19.36 | 23.79 | 33.34 | 43.9 | 54.2 | 69.8
303.15 K | 3.529 | – | 7.94 | 10.86 | 16.94 | – | 27.76 | 36.2 | 44.35 | 56.4
308.15 K | 3.181 | 4.77 | 6.98 | 9.45 | 14.61 | 17.55 | 23.4 | 30.24 | 36.77 | 46.1
313.15 K | 2.886 | 4.278 | 6.18 | 8.29 | 12.57 | 15.29 | – | 25.57 | 30.87 | 38.26
318.15 K | 2.631 | 3.864 | 5.52 | – | – | 13.22 | 17.6 | – | 26.2 | 32.15
323.15 K | – | 3.506 | 4.96 | 6.54 | – | 11.45 | – | 18.92 | 22.48 | 27.31
328.15 K | 2.218 | – | 4.485 | 5.86 | 8.27 | 9.99 | 13.53 | – | 19.46 | 23.43
333.15 K | 2.05 | 2.932 | 4.078 | – | 7.31 | 8.77 | 11.81 | 14.88 | 17.38 | 20.28
338.15 K | 1.901 | 2.699 | – | 4.8 | 6.49 | 7.77 | 10.37 | 13.07 | 15.46 | 17.69
343.15 K | 1.769 | 2.494 | 3.419 | – | 5.82 | – | 9.15 | 11.54 | – | 15.62
348.15 K | – | 2.312 | 3.149 | 4.011 | 5.23 | 6.15 | – | 10.17 | 12.07 | 13.94

CC1COC(=O)O1 (stereo unspecified) + CC[n+]1ccn(C)c1.O=S(=O)([N-]S(=O)(=O)C(F)(F)F)C(F)(F)F
x2 = 0
Settings | viscosity [mPa·s]
288.15 K | 3.063
293.15 K | 2.746
298.15 K | 2.476
308.15 K | 2.049
313.15 K | 1.879
323.15 K | 1.6
328.15 K | 1.486
333.15 K | 1.385
343.15 K | 1.213
348.15 K | 1.14

CCCCn1cc[n+](C)c1C.O=S(=O)([N-]S(=O)(=O)C(F)(F)F)C(F)(F)F + CC1COC(=O)O1
viscosity [mPa·s]
Settings | x1 = 0.0902 | x1 = 0.193 | x1 = 0.2934 | x1 = 0.4039 | x1 = 0.4996 | x1 = 0.6034 | x1 = 0.6989 | x1 = 0.8107 | x1 = 0.8987 | x1 = 1
288.15 K | 5.24 | 9.07 | 14.94 | 24.89 | 37.46 | 54.7 | – | 104.9 | 137 | 178.8
293.15 K | – | 7.79 | 12.54 | 20.44 | 30.16 | – | 59.4 | 80.2 | 103.2 | 132.9
298.15 K | 4.073 | 6.76 | 10.65 | – | 24.69 | 34.79 | 47.12 | 62.7 | 79.6 | 101.1
303.15 K | 3.637 | – | 9.15 | 14.34 | – | 28.47 | 38.01 | – | 62.6 | –
308.15 K | 3.272 | – | 7.95 | 12.21 | 17.68 | 23.64 | 31.16 | – | 50.2 | 62.2
313.15 K | – | 4.661 | 6.97 | – | 15.21 | 19.88 | 25.91 | 33.28 | 40.89 | –
318.15 K | 2.693 | – | – | 9.16 | – | 17.36 | 21.81 | – | 33.77 | –
323.15 K | 2.463 | 3.77 | 5.49 | 8.04 | 11.16 | 15.04 | 18.72 | 23.39 | 28.28 | 34.04
328.15 K | – | 3.421 | 4.92 | 7.12 | 9.65 | 12.98 | 16.46 | 19.94 | 23.94 | 28.58
333.15 K | 2.088 | 3.121 | 4.439 | 6.34 | 8.42 | 11.22 | 14.32 | – | 20.47 | –
338.15 K | 1.933 | 2.86 | – | 5.69 | – | 9.78 | 12.45 | 15.42 | 17.95 | 20.79
343.15 K | 1.796 | 2.633 | 3.671 | 5.13 | – | – | 10.85 | 13.47 | 15.87 | 18.12
348.15 K | 1.675 | 2.433 | 3.363 | 4.658 | 5.82 | 7.58 | 9.51 | 11.82 | 13.95 | 16.01

CCCC[n+]1ccn(C)c1.O=S(=O)([N-]S(=O)(=O)C(F)(F)F)C(F)(F)F + CC1COC(=O)O1
x1 = 1
Settings | viscosity [mPa·s]
293.15 K | 63.1
298.15 K | 50.5
303.15 K | 41.13
313.15 K | 28.4
318.15 K | 24.03
323.15 K | 20.54
333.15 K | 15.91
338.15 K | 14.02
343.15 K | 12.37
348.15 K | 10.91

CC1COC(=O)O1 (stereo unspecified) + CCCC[n+]1ccn(C)c1.O=S(=O)([N-]S(=O)(=O)C(F)(F)F)C(F)(F)F
viscosity [mPa·s]
Settings | x2 = 0 | x2 = 0.1013 | x2 = 0.1557 | x2 = 0.3071 | x2 = 0.4128 | x2 = 0.5045 | x2 = 0.6 | x2 = 0.7 | x2 = 0.8079 | x2 = 0.8776
288.15 K | 3.063 | 5.14 | 6.77 | 12.5 | 18.43 | 24.64 | 32.48 | 43.74 | 55.8 | 64.4
293.15 K | 2.746 | 4.535 | 5.9 | 10.63 | 15.39 | 20.32 | – | 35.25 | 44.52 | –
298.15 K | 2.476 | – | 5.19 | 9.12 | 13.04 | – | 21.83 | – | 36.14 | 41.16
303.15 K | 2.246 | 3.605 | 4.596 | 7.92 | 11.15 | – | 18.29 | 24.03 | – | –
308.15 K | 2.049 | – | – | 6.95 | – | – | 15.52 | 20.24 | 24.9 | 28.07
313.15 K | 1.879 | 2.945 | 3.69 | 6.14 | 8.42 | – | 13.31 | 17.63 | 21.07 | –
318.15 K | 1.73 | 2.683 | 3.339 | 5.47 | 7.42 | 9.33 | 11.54 | – | 18.27 | 20.13
323.15 K | 1.6 | 2.455 | 3.038 | 4.91 | – | 8.21 | 10.09 | – | 16.06 | 17.66
328.15 K | 1.486 | 2.258 | 2.778 | 4.422 | 5.88 | 7.29 | 8.9 | 11.5 | 13.99 | 15.53
333.15 K | 1.385 | 2.085 | 2.552 | 4.014 | 5.3 | 6.52 | 7.91 | 10.04 | 12.18 | –
338.15 K | 1.294 | 1.931 | 2.354 | – | 4.79 | 5.86 | 7.07 | 8.82 | 10.66 | 11.9
343.15 K | 1.213 | 1.796 | 2.18 | 3.353 | 4.359 | 5.3 | 6.36 | 7.8 | 9.39 | 10.46
348.15 K | – | 1.676 | – | 3.085 | 3.984 | 4.82 | 5.76 | 6.96 | 8.33 | 9.23
